Results on 8 compounds are retold here after patent US10961215B2, “N-aryl and N-heteroaryl piperidine derivatives as liver X receptor beta agonists, compositions, and their use” (Merck Sharp & Dohme Corp., priority 2016, dated 2021).

Test [1] deals with T1, GST tagged LXRbeta LBD (ligand binding domain) (Homo sapiens, UniProt P55055).
T1 construct: purchased Invitrogen pv4658.pps
T1 sequence (P55055 222-460 limits assumed): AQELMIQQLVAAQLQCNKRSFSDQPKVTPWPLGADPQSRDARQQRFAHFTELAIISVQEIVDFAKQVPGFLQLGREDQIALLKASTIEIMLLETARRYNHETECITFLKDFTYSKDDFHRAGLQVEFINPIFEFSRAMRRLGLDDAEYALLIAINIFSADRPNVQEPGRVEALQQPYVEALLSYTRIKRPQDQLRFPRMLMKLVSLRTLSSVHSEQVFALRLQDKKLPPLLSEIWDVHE
The test is described as follows: LanthaScreen TR-FRET Liver X Receptor Coactivator Assay, LXR beta-LBD (co-activator recruitment; IP and % Emax relative to T0901317). The settings on record: for EC50: Inflection Point of co-activator recruitment, LXR beta-LBD, TR-FRET; for Emax: efficacy at max dose in relation to reference T0901317, LXR beta-LBD, read-out: LXR beta actiivty at max dose (%). The format is biochemical. A digest of the protocol: (§1)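 GST-tagged LXRα or LXRβ LBD was added to test compounds, then fluorescein-labelled coactivator peptide plus terbium anti-GST antibody. After room-temperature incubation, TR-FRET was read. Inflection point and Emax derive from coactivator recruitment relative to reference agonist T0901317.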

For test [2], the target named is T2, GST tagged LXRalpha LBD (ligand binding domain) (Homo sapiens, UniProt Q13133).
T2 construct: purchased Invitrogen pv4655
T2 sequence (Q13133 209-447 limits assumed): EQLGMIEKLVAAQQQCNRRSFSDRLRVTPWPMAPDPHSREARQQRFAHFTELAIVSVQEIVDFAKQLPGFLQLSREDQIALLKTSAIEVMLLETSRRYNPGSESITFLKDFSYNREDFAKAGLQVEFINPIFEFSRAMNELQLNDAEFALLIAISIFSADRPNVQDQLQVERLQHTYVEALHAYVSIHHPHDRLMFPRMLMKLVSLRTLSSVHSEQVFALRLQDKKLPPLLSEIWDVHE
The test is described as follows: LanthaScreen TR-FRET Liver X Receptor Coactivator Assay, LXR alpha-LBD (co-activator recruitment; IP and % Emax relative to T0901317). The class given is biochemical. The settings on record: for EC50 / LXR alpha IP (nM): Inflection Point of co-activator recruitment, LXR alpha-LBD, TR-FRET; for Emax: efficacy at max dose in relation to reference T0901317, LXR alpha-LBD, read-out: LXR alpha actiivty at max dose (%). A digest of the protocol:
as §1

Usually EC50 stands for the midpoint of the concentration-response curve. With `CN(C)C(=O)c1ccc(N2CCC([C@@H]3C[C@H]3CN(C)C(=O)[C@](O)(c3ccccc3)C(F)(F)F)CC2)nc1Cl` [Example 15-15], in test [1], the EC50 was 0.186 µM and the Emax is 75%. In test [2], the EC50 stood at 6.07 µM and the Emax was determined as 23%.
The corresponding values for `COc1ccccc1[C@]1(C(=O)N(C)CCCC2CCN(c3ccc(C(=O)N(C)C)c(Cl)n3)CC2)CCCO1` [Example 1-59, (S)-2-chloro-6-(4-(3-(2-(2-methoxyphenyl)-N-methyltetrahydrofuran-2-carboxamido)propyl)piperidin-1-yl)-N,N-dimethylnicotinamide] are 0.118 µM, 80%, 2.86 µM and 24%.
Turning to `COc1cccc([C@@](O)(C(=O)N(C)CC[C@H]2CC23CCN(c2ccc(C(=O)N(C)C(C)C)c(Cl)c2)CC3)C(F)(F)F)c1` [Example 7-14, 2-chloro-N-isopropyl-N-methyl-4-((R)-1-(2-((R)-3,3,3-trifluoro-2-hydroxy-2-(3-methoxyphenyl)-N-methylpropanamido)ethyl)-6-azaspiro[2.5]octan-6-yl)benzamide], in test [1], the response was half-maximal at 0.018 µM (EC50) and the Emax came out at 55%. Also, in test [2], the “LXR alpha IP (nM)” value is given as “No IP” and the Emax is 6%.
As for `CN(C)C(=O)c1ccc(N2CCC(CCCN(C)C(=O)C(O)(c3cccc(O)c3)C(F)(F)F)CC2)nc1Cl` (centres unmarked) [Example 1-45, 2-chloro-N,N-dimethyl-6-(4-(3-(3,3,3-trifluoro-2-hydroxy-2-(3-hydroxyphenyl)-N-methylpropanamido)propyl)piperidin-1-yl)nicotinamide], in test [1], the EC50 was determined as 0.045 µM and the Emax stood at 82%. Besides, in test [2], the EC50 worked out at 2.51 µM and the Emax turned out to be 32%.
For `CN(C)C(=O)c1ccc(N2CCC(CCCNC(=O)C(O)(c3ccccc3)C(F)(F)C(F)(F)F)CC2)cc1Cl` (centres unmarked) [Example 5-3, 2-chloro-N,N-dimethyl-4-(4-(3-(3,3,4,4,4-pentafluoro-2-hydroxy-2-phenyl-butanamido)propyl)piperidin-1-yl)benzamide] the same measures were 0.38 µM, 118%, 1.67 µM and 27%.
Consider `CN(C)C(=O)c1ccc(N2CCC(CCCNC(=O)[C@](O)(c3ccccc3)C(F)(F)F)CC2)nc1Cl` [Example 5-8, (R)-2-chloro-N,N-dimethyl-6-(4-(3-(3,3,3-trifluoro-2-hydroxy-2-phenylpropanamido)propyl)piperidin-1-yl) nicotinamide], for which, in test [1], the EC50 came out at 0.105 µM and the Emax amounted to 104%. In addition, in test [2], the response was half-maximal at 5.14 µM (EC50) and the Emax amounted to 28%.
Consider `CN(C)C(=O)c1ccc(N2CCC(F)(CCCN(C)C(=O)[C@](O)(c3ccccc3)C(F)(F)F)CC2)cc1Cl` [Example 12-1, (R)-2-chloro-4-(4-fluoro-4-(3-(3,3,3-trifluoro-2-hydroxy-N-methyl-2-phenylpropanamido)propyl)piperidin-1-yl)-N,N-dimethylbenzamide], for which, in test [1], it took 0.266 µM to reach a half-maximal effect (EC50) and the Emax amounted to 44%. Moreover, in test [2], the “LXR alpha IP (nM)” value is “No IP” and the Emax is 12%.
Consider `COc1cccc([C@@](O)(C(=O)Nc2ccc(C3CCN(c4ccc(C(=O)N(C)C)c(Cl)c4)CC3)cc2)C(F)(F)F)c1` [Example 10-3, (R)-2-chloro-N,N-dimethyl-4-(4-(4-(3,3,3-trifluoro-2-hydroxy-2-(3-methoxyphenyl)propanamido)phenyl)piperidin-1-yl)benzamide], for which, in test [1], the EC50 was 1.33 µM and the Emax is 67%. For the same compound, in test [2], the “LXR alpha IP (nM)” value was “No IP” and the Emax was found to be 18%.
